Assay results from US20260109709A1 (MIRATI THERAPEUTICS, INC., priority 2021, published 2026).
Counter-ions that a name gives are not always drawn. Like-named read-outs stand apart in the source and are kept apart here.

Legend:
PRMT5-MEP50 = target: T1, PRMT5-MEP50 (Homo sapiens, UniProt O14744); experiment: SPR binding assay (PRMT5.MTA and PRMT5·SAM surfaces); settings: steady-state fit
T1 construct: biotin (in vivo biotinylated)
Protocol: In vivo biotinylated PRMT5-MEP50 was diluted to […] in 25 mM Bicine pH 7.6, 100 mM NaCl, 1 mM TCEP, and 0.05% Tween-20 and injected at 5 μl/min flow rate into flow cell 2 (FC2) of a Series S Sensor Chip SA (Cytiva) in a Biacore T200 or in a Biacore 8K plus (Cytiva). SPR screening was performed in MTA running buffer (25 mM Bicine pH 7.6, 100 mM NaCl, 1 mM TCEP, 20 µM MTA, 0.05% Tween-20 and 2% DMSO). The biotinylated PRMT5-MEP50 surface was equilibrated with MTA running buffer for 12 hours prior to the start. […] Subsequently, compound titration was repeated in SAM-running buffer (25 mM Bicine pH 7.6, 100 mM NaCl, 1 mM TCEP, 20 μM SAM, 0.05% Tween-20, and 2% DMSO). […] After double referencing, the steady-state response was extracted for each fragment concentration and was fit to the Langmuir isotherm equation to determine the equilibrium dissociation constant (KD).

PRMT5/MEP50 complex = target: T2, PRMT5/MEP50 complex (Homo sapiens, UniProt O14744); experiment: PRMT5:MEP50 FlashPlate Assay (histone H4 peptide methylation); type: biochemical; settings: 40 nM H4 (1-15) peptide, 1 μM SAM
T2 construct: purchased Reaction Biology Corporation
T2 sequence (O14744 2-637 limits assumed): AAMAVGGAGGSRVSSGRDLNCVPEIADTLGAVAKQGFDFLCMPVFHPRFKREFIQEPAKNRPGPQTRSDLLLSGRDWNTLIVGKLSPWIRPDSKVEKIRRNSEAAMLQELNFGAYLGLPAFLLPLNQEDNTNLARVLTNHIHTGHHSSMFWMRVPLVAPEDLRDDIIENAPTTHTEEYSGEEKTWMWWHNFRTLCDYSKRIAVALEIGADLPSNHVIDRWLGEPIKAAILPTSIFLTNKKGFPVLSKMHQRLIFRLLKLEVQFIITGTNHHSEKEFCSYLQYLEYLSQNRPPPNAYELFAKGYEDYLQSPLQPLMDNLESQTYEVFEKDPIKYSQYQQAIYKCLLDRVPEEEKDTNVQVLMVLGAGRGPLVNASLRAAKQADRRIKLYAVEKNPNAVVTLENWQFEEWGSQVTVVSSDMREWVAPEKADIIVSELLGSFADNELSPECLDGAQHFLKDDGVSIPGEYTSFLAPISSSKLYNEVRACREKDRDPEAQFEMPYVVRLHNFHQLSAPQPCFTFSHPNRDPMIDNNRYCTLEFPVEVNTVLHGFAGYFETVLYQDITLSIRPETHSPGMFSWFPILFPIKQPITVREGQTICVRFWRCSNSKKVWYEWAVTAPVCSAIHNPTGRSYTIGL
T2 sequence (Q9BQA1 2-342 partner limits assumed): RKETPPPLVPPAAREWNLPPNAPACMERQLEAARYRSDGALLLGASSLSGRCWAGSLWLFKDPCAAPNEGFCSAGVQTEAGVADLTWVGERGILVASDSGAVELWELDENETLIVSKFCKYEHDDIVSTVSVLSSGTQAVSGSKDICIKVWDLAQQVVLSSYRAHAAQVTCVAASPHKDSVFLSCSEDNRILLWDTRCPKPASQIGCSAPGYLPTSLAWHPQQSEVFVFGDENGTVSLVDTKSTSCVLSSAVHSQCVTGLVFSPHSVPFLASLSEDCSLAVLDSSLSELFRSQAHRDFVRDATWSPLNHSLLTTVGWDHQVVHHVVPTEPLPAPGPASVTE
Protocol: The PRMT5 inhibitory activity of compounds of the present invention was determined using a PRMT5: MEP50 FlashPlate Assay and a PRMT5: MEP50 HotSpot Assay (Reaction Biology Corporation).
The assay uses purified human, PRMT5 enzyme to convert S-adenosyl-L-[methyl-3H]methionine plus histone H4 L-arginine to S-adenosyl-L-homocysteine plus histone H4 [methyl-3H]-L-arginine. The assay was carried out using Streptavidin-coated FlashPlates (Perkin Elmer), which contained a scintillant embedded in the plastic of the plate. The histone H4 peptide substrate was conjugated with biotin, which binds to the streptavidin-coated well of the plate, placing the H4 peptide in close proximity to the side well and the scintillant. The transfer of the tritiated methyl group from S-adenosyl-L-[methyl-3H]methionine to the bound histone H4 peptide generated a radiolabeled histone H4, which was quantitated by measuring in a scintillation counter to determine the activity of PRMT5 enzyme in the presence and absence of compound. […] Briefly, compounds of the present invention were solubilized in 100% DMSO at a highest concentration of 10 mM. […] Control samples lacking compound, PRMT5/MEP50 complex or various reaction components also were prepared and processed in parallel with compound test samples. SAH was used as a positive control for assay validation. To measure PRMT5 inhibitory activity, 3 nM PRMT5/MEP50 complex (Reaction Biology Corporation) was preincubated with test compound in assay buffer containing 40 nM histone H4 peptide (amino acids 1-15)-Biotin conjugate for 20 min at room temperature. The enzymatic reaction was initiated by adding 1 μM tritiated S-adenosyl methionine (final concentration) and the reaction is allowed to proceed for 20 min. The reaction was stopped and the amount of bound, tritiated H4 peptide in each sample was determined using a scintillation counter.

[1] = PRMT5.MTA surface, MTA running buffer (20 µM MTA), read-out: KD MTA
[2] = PRMT5·SAM surface, SAM running buffer (20 μM SAM), read-out: KD SAM

T1 sequence (O14744 whole entry): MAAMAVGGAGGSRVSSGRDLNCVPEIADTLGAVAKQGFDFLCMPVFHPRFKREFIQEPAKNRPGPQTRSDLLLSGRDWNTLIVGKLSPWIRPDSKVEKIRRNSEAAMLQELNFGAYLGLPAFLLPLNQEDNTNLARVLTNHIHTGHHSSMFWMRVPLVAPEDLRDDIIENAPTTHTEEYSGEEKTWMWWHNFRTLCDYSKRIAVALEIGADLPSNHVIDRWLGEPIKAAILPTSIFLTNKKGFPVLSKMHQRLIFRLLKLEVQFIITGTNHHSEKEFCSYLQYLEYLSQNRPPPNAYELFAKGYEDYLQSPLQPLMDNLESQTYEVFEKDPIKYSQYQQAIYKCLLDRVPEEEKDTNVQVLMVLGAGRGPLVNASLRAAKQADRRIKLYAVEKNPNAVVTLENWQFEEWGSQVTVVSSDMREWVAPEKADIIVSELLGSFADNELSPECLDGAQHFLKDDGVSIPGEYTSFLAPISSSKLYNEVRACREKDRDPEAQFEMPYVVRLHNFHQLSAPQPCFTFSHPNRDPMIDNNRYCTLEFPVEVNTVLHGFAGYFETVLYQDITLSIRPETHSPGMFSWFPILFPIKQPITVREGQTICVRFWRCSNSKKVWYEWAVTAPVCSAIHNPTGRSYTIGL
T1 sequence (Q9BQA1 whole entry partner): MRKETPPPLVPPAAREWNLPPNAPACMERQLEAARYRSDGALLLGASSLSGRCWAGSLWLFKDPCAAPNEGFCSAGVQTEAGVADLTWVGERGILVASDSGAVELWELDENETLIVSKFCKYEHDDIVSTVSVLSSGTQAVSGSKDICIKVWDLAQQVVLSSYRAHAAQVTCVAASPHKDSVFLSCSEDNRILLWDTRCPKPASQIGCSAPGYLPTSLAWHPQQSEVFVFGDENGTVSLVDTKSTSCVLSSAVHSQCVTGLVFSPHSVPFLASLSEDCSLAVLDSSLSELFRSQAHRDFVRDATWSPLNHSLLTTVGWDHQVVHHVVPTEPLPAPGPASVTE

| Structure (SMILES) | Kd (PRMT5-MEP50; [1]) [µM] | Kd (PRMT5-MEP50; [2]) [µM] | IC50 (PRMT5/MEP50 complex; IC50 + 2 μM MTA, plus 2 μM MTA) [µM] | IC50 (PRMT5/MEP50 complex; absence of MTA, read-out: IC50) [µM] |
| --- | --- | --- | --- | --- |
| Cn1ccc(-c2ccc3c(c2)nc(N)n3C)n1 [Example 1-2, 1-methyl-5-(1-methyl-1H-pyrazol-3-yl)-1H-benzo[d]imidazol-2-amine] | 49 | 65.8 | > 300 |  |
| Cc1ncc(CNc2cccc3c2nc(N)n3C)n1-c1ccccc1 [Example 1-12, 1-methyl-N4-((2-methyl-1-phenyl-1H-imidazol-5-yl)methyl)-1H-benzo[d]imidazole-2,4-diamine] | 2.45 | 19.7 | > 300 |  |
| Cn1c(N)nc2c(Nc3cnc4c(c3)CCCC4)cccc21 [Example 1-19, 1-methyl-N4-(5,6,7,8-tetrahydroquinolin-3-yl)-1H-benzo[d]imidazole-2,4-diamine] | 74.2 | 203 | > 300 |  |
| CC(C)c1nc(Nc2cccc3c2nc(N)n3C)ns1 [Example 1-42, N4-(5-isopropyl-1,2,4-thiadiazol-3-yl)-1-methyl-1H-benzo[d]imidazole-2,4-diamine] | 20.8 |  | > 300 |  |
| COc1cccc(CN(C)c2ccc3c(c2)nc(N)n3C)c1 [Example 1-48, N5-(3-methoxybenzyl)-N5,1-dimethyl-1H-benzo[d]imidazole-2,5-diamine] | 39.1 | 108 |  |  |
| Cn1cc(-c2ccc3c(c2)nc(N)n3C)cn1 [Example 1-53, 1-methyl-5-(1-methyl-1H-pyrazol-4-yl)-1H-benzo[d]imidazol-2-amine] | 44.6 | 187 | > 300 |  |
| Cn1nccc1-c1ccc2c(c1)nc(N)n2C [Example 1-56, 1-methyl-5-(1-methyl-1H-pyrazol-5-yl)-1H-benzo[d]imidazol-2-amine] | 24.5 | 51.9 | > 300 |  |
| CN(Cc1nnc2n1CCOC2)c1ccc2c(c1)nc(N)n2C [Example 1-83, N5-((5,6-dihydro-8H-[1,2,4]triazolo[3,4-c][1,4]oxazin-3-yl)methyl)-N5,1-dimethyl-1H-benzo[d]imidazole-2,5-diamine] | 0.089 | 41.8 | > 300 |  |
| Cn1ncc(-c2cccc3c2nc(N)n3C)c1-c1ccccc1C#N [Example 1-87, 2-(4-(2-amino-1-methyl-1H-benzo[d]imidazol-4-yl)-1-methyl-1H-pyrazol-5-yl)benzonitrile hydrochloride] | 0.512 | 1.67 | 17.9 | > 300 |
| Cn1ncc(-c2ccc(Cl)c3c2nc(N)n3C)c1-c1c(F)cc2ccccc2c1C#N [Example 2-2, 2-[4-(2-amino-7-chloro-1-methyl-benzimidazol-4-yl)-2-methyl-pyrazol-3-yl]-3-fluoro-naphthalene-1-carbonitrile hydrochloride] | 0.151 | 0.679 | 0.527 | 10.7 |
| Cn1c(N)nc2c(Nc3cnc4c(c3)CCCC4)ccc(Cl)c21 [Example 2-4, 7-chloro-1-methyl-N^4-(5,6,7,8-tetrahydroquinolin-3-yl)-1H-benzo[d]imidazole-2,4-diamine hydrochloride] | 26.8 | 40.9 | > 300 | > 300 |
| Cn1c(N)nc2c(C3CCOC3)ccc(Cl)c21 (stereo not drawn) [Example 2-8, 7-chloro-1-methyl-4-tetrahydrofuran-3-yl-benzimidazol-2-amine hydrochloride] | 24.7 |  | > 300 | > 300 |
| CN(c1cccnc1)c1cc(Cl)c2c(c1)nc(N)n2C [Example 2-9, 7-chloro-N5-1-dimethyl-N5-(3-pyridyl)benzimidazole-2,5-diamine hydrochloride] | 65.7 | 175 | > 300 | > 300 |
| Cn1c(N)nc2cc(Cc3cccnc3)cc(Cl)c21 [Example 2-10, 7-chloro-1-methyl-5-(3-pyridylmethyl)benzimidazol-2-amine hydrochloride] | 1.52 | 48.4 | 97.6 | > 300 |
| Cn1c(N)nc2cc(Cc3cccnc3)cc(C#N)c21 [Example 3-2, 2-amino-3-methyl-6-(3-pyridylmethyl)benzimidazole-4-carbonitrile] | 0.513 | 35.6 | 110 | > 300 |
| Cn1c(N)nc2cc(Cc3ccccn3)cc(C#N)c21 [Example 3-3, 2-amino-3-methyl-6-(2-pyridylmethyl)benzimidazole-4-carbonitrile] | 0.187 | 2.75 | 17.6 | 134 |
| Cn1nc(-c2cc(C#N)c3c(c2)nc(N)n3C)c2cnccc21 [Example 3-5, 2-amino-3-methyl-6-(1-methylpyrazolo[4,3-c]pyridin-3-yl)benzimidazole-4-carbonitrile] | 1.14 | 2.77 | > 300 | > 300 |
| Cn1cc(Cc2cc(C#N)c3c(c2)nc(N)n3C)cn1 [Example 3-6, 2-amino-3-methyl-6-[ (1-methylpyrazol-4-yl)methyl]benzimidazole-4-carbonitrile] | 0.179 | 1.94 | 44.4 | > 300 |
| Cn1nccc1Cc1cc(C#N)c2c(c1)nc(N)n2C [Example 3-8, 2-amino-3-methyl-6-[ (2-methylpyrazol-3-yl)methyl]benzimidazole-4-carbonitrile] | 4.43 | 10.2 | > 300 | > 300 |
| Cn1c(N)nc2cc(Cc3ccc4ccncc4c3)cc(C#N)c21 [Example 3-9, 2-amino-6-(7-isoquinolylmethyl)-3-methyl-benzimidazole-4-carbonitrile] | 0.879 | 3.67 | 16.9 | 219 |
| Cn1c(N)nc2cc(C(=O)c3cccnc3)cc(C#N)c21 [Example 3-16, 2-amino-3-methyl-6-(pyridine-3-carbonyl)benzimidazole-4-carbonitrile] | 7.51 | 23.6 | > 300 | > 300 |
| COc1c(Cc2cccnc2)cc(C#N)c2c1nc(N)n2C [Example 3-22, 2-amino-7-methoxy-3-methyl-6-(3-pyridylmethyl)benzimidazole-4-carbonitrile hydrochloride] | 16.3 | 79.6 |  |  |
| Cn1c(N)nc2c(Nc3cnc4c(c3)CCCC4)ccc(C#N)c21 [Example 3-30, 2-amino-1-methyl-4-((5,6,7,8-tetrahydroquinolin-3-yl)amino)-1H-benzo[d]imidazole-7-carbonitrile] | 16.9 | 32.5 |  |  |
| Nc1nc2ncccc2n1Cc1ccccc1 [Example 5-2, 1-benzylimidazo[4,5-b]pyridin-2-amine hydrochloride] |  | 176 | 76.2 | > 300 |
| Cn1ncc(-c2cc(Cl)cc3c2nc(N)n3C)c1-c1ccccc1C#N [Example 6-1, 2-[4-(2-amino-6-chloro-1-methyl-benzimidazol-4-yl)-2-methyl-pyrazol-3-yl]benzonitrile] | 0.322 | 0.816 | 14 | > 300 |
| Cc1cc(-c2cnn(C)c2-c2ccccc2C#N)c2nc(N)n(C)c2c1 [Example 6-2, 2-[4-(2-amino-1,6-dimethyl-benzimidazol-4-yl)-2-methyl-pyrazol-3-yl]benzonitrile hydrochloride] | 0.047 |  | 29.3 | > 300 |
